From article PMC12736255, “Reinvestigating Pyrrol-2-One-Based Compounds: From Antimicrobial Agents to Promising Antitumor Candidates” (Pharmaceuticals, 2025)

Key:
[1] = tested on: EKVX; assay: NCI-60 single-dose screen; assay type: cell-based, human; conditions: Homo sapiens, 10^–5 M, read-out: GI (%)
Description: (§1) In the next step, all synthesized compounds were electronically submitted and accepted for testing to the National Cancer Institute (NCI) platform, for the single dose (10^−5 M) screening against a panel of 60 human tumor cell lines, representing leukemia, melanoma, and cancers of the lung, colon, central nervous system, ovary, kidney, prostate, and breast. The results are summarized in Table 2, with the best values highlighted in red (Figures S1–S14).

[2] = tested on: NCI-H226; assay: NCI-60 single-dose screen; assay type: cell-based, human; conditions: NCI-H226, 10^–5 M; for inhibition at 10 µM: Homo sapiens, read-out: GI (%)
Description: as §1

[3] = tested on: HCC-2998; assay: NCI-60 single-dose screen; assay type: cell-based; conditions: Homo sapiens; HCC-2998, 10^–5 M; read-out: GI (%)
How it was run: (§2)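 Read-out is from the NCI-60 program: human tumor lines exposed to a single 10^−5 M dose of each compound.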

[4] = tested on: HL-60(TB); assay: NCI-60 single-dose screen; assay type: cell-based; conditions: Homo sapiens, 10^–5 M, read-out: GI (%)
How it was run: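 Screening was run by the National Cancer Institute at one dose (10^−5 M) in its 60-line human cancer panel.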

[5] = tested on: HOP-92; assay: NCI-60 single-dose screen; assay type: cell-based; conditions: Homo sapiens; HOP-92, 10^–5 M; read-out: GI (%)
How it was run: as §2

[6] = tested on: IGROV1; assay: NCI-60 single-dose screen; assay type: cell-based; conditions: Homo sapiens, IGROV-1; IGROV1, 10^–5 M; read-out: GI (%)
How it was run: as §2

[7] = tested on: K-562; assay: NCI-60 single-dose screen; assay type: cell-based; conditions: Homo sapiens, K562; K-562, 10^–5 M; read-out: GI (%)
How it was run: as §2

[8] = tested on: NCI-H322M; assay: NCI-60 single-dose screen; assay type: cell-based; conditions: Homo sapiens, 10^–5 M, read-out: GI (%)
How it was run: as §2

[9] = tested on: NCI-H460; assay: NCI-60 single-dose screen; assay type: cell-based; conditions: Homo sapiens; NCI-H460, 10^–5 M; read-out: GI (%)
How it was run: as §2

[10] = tested on: OVCAR-8; assay: NCI-60 single-dose screen; assay type: cell-based; conditions: Homo sapiens; OVCAR-8, 10^–5 M; read-out: GI (%)
How it was run: as §2

[11] = tested on: SR; assay: NCI-60 single-dose screen; assay type: cell-based; conditions: Homo sapiens, 10^–5 M, read-out: GI (%)
How it was run: as §2

[12] = tested on: SW-620; assay: NCI-60 single-dose screen; assay type: cell-based; conditions: Homo sapiens; SW-620, 10^–5 M; read-out: GI (%)
How it was run: as §2

[13] = tested on: T-47D; assay: NCI-60 single-dose screen; assay type: cell-based; conditions: Homo sapiens, T47D, 10^–5 M, read-out: GI (%)
How it was run: as §2

[14] = tested on: TK-10; assay: NCI-60 single-dose screen; assay type: cell-based; conditions: Homo sapiens; TK-10, 10^–5 M; read-out: GI (%)
How it was run: as §2

[15] = tested on: UACC-62; assay: NCI-60 single-dose screen; assay type: cell-based; conditions: Homo sapiens; UACC-62, 10^–5 M; read-out: GI (%)
How it was run: as §2

[16] = tested on: NCI-H226; assay: NCI-60 5-dose screen; assay type: cell-based, human
[17] = tested on: HOP-62; assay: NCI-60 5-dose screen; assay type: cell-based, human
[18] = tested on: HT29; assay: NCI-60 5-dose screen; assay type: cell-based, human
[19] = tested on: SW-620; assay: NCI-60 5-dose screen; assay type: cell-based, human
[20] = tested on: SNB-75; assay: NCI-60 5-dose screen; assay type: cell-based, human
[21] = tested on: M14; assay: NCI-60 5-dose screen; assay type: cell-based, human
[22] = tested on: SK-MEL-2; assay: NCI-60 5-dose screen; assay type: cell-based, human
[23] = tested on: SK-OV-3; assay: NCI-60 5-dose screen; assay type: cell-based, human
[24] = tested on: CAKI-1; assay: NCI-60 5-dose screen; assay type: cell-based, human
[25] = tested on: TK-10; assay: NCI-60 5-dose screen; assay type: cell-based, human
[26] = tested on: MDA-MB-231/ATCC; assay: NCI-60 5-dose screen; assay type: cell-based, human
[27] = tested on: BT-549; assay: NCI-60 5-dose screen; assay type: cell-based, human
[28] = tested on: T-47D; assay: NCI-60 5-dose screen; assay type: cell-based, human
[29] = tested on: PC-3; assay: NCI-60 5-dose screen; assay type: cell-based, human
[30] = tested on: BT-549; assay: NCI-60 single-dose screen; assay type: cell-based, human; conditions: BT-549, 10^–5 M
Description: as §1

[31] = tested on: HOP-62; assay: NCI-60 single-dose screen; assay type: cell-based, human; conditions: HOP-62, 10^–5 M
Description: as §1

[32] = tested on: MDA-MB-468; assay: NCI-60 single-dose screen; assay type: cell-based, human; conditions: MDA-MB-468, 10^–5 M
Description: as §1

[33] = tested on: SF-295; assay: NCI-60 single-dose screen; assay type: cell-based, human; conditions: SF-295, 10^–5 M
Description: as §1

[34] = tested on: U251; assay: NCI-60 single-dose screen; assay type: cell-based, human; conditions: U251, 10^–5 M
Description: as §1

[35] = tested on: UO-31; assay: NCI-60 single-dose screen; assay type: cell-based, human; conditions: UO-31, 10^–5 M
Description: as §1

[36] = Homo sapiens, read-out: LC50 (the source's name)

In the case of `N#Cc1ccc(C2C=C(Nc3ccc(I)cc3)C(=O)N2c2ccc(I)cc2)cc1` (stereo not shown) [3l], the inhibition at 10 µM [1] is reported as 100%, the inhibition at 10 µM [2] is reported as 100% and the “GI (%)” value [2] is reported as 100 ^i1%. For the same molecule, the inhibition at 10 µM [3] was 50%, the inhibition at 10 µM [4] was 0% and the inhibition at 10 µM [5] was 75%. For the same molecule, the inhibition at 10 µM [6] was 54%, the inhibition at 10 µM [7] was 14% and the inhibition at 10 µM [8] was 51%. The inhibition at 10 µM [9] was 40%, the inhibition at 10 µM [10] was 30% and the inhibition at 10 µM [11] was 87%. The inhibition at 10 µM [12] was 50%, the inhibition at 10 µM [13] was 59% and the inhibition at 10 µM [14] was 99%. It also gave an inhibition at 10 µM [15] of 17%, a TGI [16] of over 100 µM and a GI50 ([16]; Homo sapiens) of 4.42 µM. The CC50 [16, 36] was over 100 µM, the TGI [17] was over 100 µM and the GI50 ([17]; Homo sapiens) was 5.21 µM. The CC50 [17, 36] was over 100 µM, the TGI [18] was over 100 µM and the GI50 ([18]; Homo sapiens, HT-29) was 9.43 µM. The CC50 ([18]; Homo sapiens, HT-29, read-out: LC50 (the source's name)) was over 100 µM, the TGI [19] was over 100 µM and the GI50 ([19]; Homo sapiens) was 5.91 µM. It also gave a CC50 [19, 36] of over 100 µM, a TGI [20] of 3.42 µM and a GI50 ([20]; Homo sapiens) of 1.34 µM. It also gave a CC50 [20, 36] of 8.76 µM, a TGI [21] of over 100 µM and a GI50 ([21]; Homo sapiens) of 7.24 µM. The CC50 [21, 36] was over 100 µM, the TGI [22] was over 100 µM and the GI50 ([22]; Homo sapiens) was 3.7 µM. For the same molecule, the CC50 [22, 36] was over 100 µM, the TGI [23] was over 100 µM and the GI50 ([23]; Homo sapiens) was 6.41 µM. It also gave a CC50 [23, 36] of over 100 µM, a TGI [24] of over 100 µM and a GI50 ([24]; Homo sapiens) of 9.48 µM. The CC50 [24, 36] was over 100 µM, the TGI [25] was over 100 µM and the GI50 ([25]; Homo sapiens) was 3.85 µM. It also gave a CC50 [25, 36] of over 100 µM, a TGI [26] of 9.63 µM and a GI50 ([26]; Homo sapiens) of 2.5 µM. The CC50 [26, 36] was over 100 µM, the TGI [27] was over 100 µM and the GI50 ([27]; Homo sapiens) was 5.81 µM. It also gave a CC50 [27, 36] of over 100 µM, a TGI [28] of over 100 µM and a GI50 ([28]; Homo sapiens, T47D) of 7.13 µM. For the same molecule, the CC50 ([28]; Homo sapiens, T47D, read-out: LC50 (the source's name)) was over 100 µM, the TGI [29] was over 100 µM and the GI50 ([29]; Homo sapiens) was 2.4 µM. The CC50 [29, 36] was over 100 µM.

For `COc1cc(OC)c(C2C=C(Nc3ccc(I)cc3)C(=O)N2c2ccc(I)cc2)cc1OC` (stereo not shown) [3k], the “GI (%)” value [30] was 10%, the inhibition at 10 µM [1] was 0% and the “GI (%)” value [31] was 0%. For the same molecule, the “GI (%)” value [32] was 44%, the inhibition at 10 µM [2] was 0% and the “GI (%)” value [33] was 2%. The “GI (%)” value [34] was 0%, the “GI (%)” value [35] was 0% and the inhibition at 10 µM [3] was 5%. For the same molecule, the inhibition at 10 µM [4] was 2%, the inhibition at 10 µM [5] was 0% and the inhibition at 10 µM [6] was 2%. The inhibition at 10 µM [7] was 0%, the inhibition at 10 µM [8] was 4% and the inhibition at 10 µM [9] was 0%. It also gave an inhibition at 10 µM [10] of 0%, an inhibition at 10 µM [11] of 7% and an inhibition at 10 µM [12] of 0%. For the same molecule, the inhibition at 10 µM [13] was 8%, the inhibition at 10 µM [14] was 1% and the inhibition at 10 µM [15] was 0%.

For `O=C1C(Nc2ccc(I)cc2)=CC(c2ccc(Br)cc2)N1c1ccc(I)cc1` (stereo not shown) [3d], the inhibition at 10 µM [1] was 36%, the inhibition at 10 µM [2] was 17% and the inhibition at 10 µM [3] was 0%. For the same molecule, the inhibition at 10 µM [4] was 0%, the inhibition at 10 µM [5] was 0% and the inhibition at 10 µM [6] was 16%. It also gave an inhibition at 10 µM [7] of 15%, an inhibition at 10 µM [8] of 0% and an inhibition at 10 µM [9] of 0%. The inhibition at 10 µM [10] was 0%, the inhibition at 10 µM [11] was 0% and the inhibition at 10 µM [12] was 16%. It also gave an inhibition at 10 µM [13] of 49%, an inhibition at 10 µM [14] of 0% and an inhibition at 10 µM [15] of 0%.

In the case of `O=C1C(Nc2ccc(I)cc2)=CC(c2cc(C(F)(F)F)cc(C(F)(F)F)c2)N1c1ccc(I)cc1` (stereo not shown) [3f], the inhibition at 10 µM [1] is reported as 35%, the inhibition at 10 µM [2] is reported as 81% and the inhibition at 10 µM [3] is reported as 2%. The inhibition at 10 µM [4] was 59%, the inhibition at 10 µM [5] was 19% and the inhibition at 10 µM [6] was 0%. It also gave an inhibition at 10 µM [7] of 26%, an inhibition at 10 µM [8] of 10% and an inhibition at 10 µM [9] of 35%. The inhibition at 10 µM [10] was 26%, the inhibition at 10 µM [11] was 47% and the inhibition at 10 µM [12] was 20%. It also gave an inhibition at 10 µM [13] of 100%, an inhibition at 10 µM [14] of 57% and an inhibition at 10 µM [15] of 0%.
